Laboratory results taken from patent publication US4656158A, “Peptide, and production and use thereof” (Suntory Limited, priority 1984, dated 1987).

What was measured:
[1] = repeated administration: immunogenicity and toxicity; format: in vivo
solubility in solvents = format: physicochemical

- solubility in organic solvents (solubility in solvents; ethyl acetate, butyl acetate, ethyl ether, hexane, petroleum ether, benzene, chloroform): insoluble
- solubility in methanol and acetic acid (solubility in solvents; methanol, acetic acid): partially
- solubility in water (solubility in solvents; water): soluble
SMILES: CC[C@H](C)[C@@H]1NC(=O)[C@H](CCCNC(=N)N)NC(=O)[C@H](CC(=O)O)NC(=O)[C@H](CCSC)NC(=O)[C@H](CCCNC(=N)N)NC(=O)CNC(=O)CNC(=O)[C@H](Cc2ccccc2)NC(=O)[C@@H](NC(=O)[C@H](CO)NC(=O)[C@H](CO)NC(=O)[C@H](CCCNC(=N)N)NC(=O)[C@H](CCCNC(=N)N)NC(=O)[C@H](CC(C)C)NC(=O)[C@@H](N)CO)CSSC[C@@H](C(=O)N[C@@H](CC(N)=O)C(=O)N[C@@H](CO)C(=O)N[C@@H](Cc2ccccc2)C(=O)N[C@@H](CCCNC(=N)N)C(=O)N[C@@H](Cc2ccc(O)cc2)C(=O)O)NC(=O)CNC(=O)[C@H](CC(C)C)NC(=O)CNC(=O)[C@H](CO)NC(=O)[C@H](CCC(N)=O)NC(=O)[C@H](C)NC(=O)CNC(=O)[C@H]([C@@H](C)CC)NC(=O)[C@H](CCCNC(=N)N)NC(=O)[C@H](CC(=O)O)NC(=O)[C@H](CCSC)NC(=O)[C@H](CCCNC(=N)N)NC(=O)CNC(=O)CNC(=O)[C@H](Cc2ccccc2)NC(=O)[C@@H](NC(=O)[C@H](CO)NC(=O)[C@H](CO)NC(=O)[C@H](CCCNC(=N)N)NC(=O)[C@H](CCCNC(=N)N)NC(=O)[C@H](CC(C)C)NC(=O)[C@@H](N)CO)CSSC[C@@H](C(=O)N[C@@H](CC(N)=O)C(=O)N[C@@H](CO)C(=O)N[C@@H](Cc2ccccc2)C(=O)N[C@@H](CCCNC(=N)N)C(=O)N[C@@H](Cc2ccc(O)cc2)C(=O)O)NC(=O)CNC(=O)[C@H](CC(C)C)NC(=O)CNC(=O)[C@H](CO)NC(=O)[C@H](CCC(N)=O)NC(=O)[C@H](C)NC(=O)CNC1=O [β-hANP, β-human atrial natriuretic polypeptide]
- toxicity ([1]; gradually hydrolized in a body to L-amino acids): little toxicity
- anaphylaxis shock ([1]; repeated administration): does not cause anaphylaxis shock
- production of antibodies ([1]; repeated administration): does not stimulate production of antibodies
